Laboratory results as given in patent publication US20250236616A1, “IMMUNOMODULATING AZALIDES” (Zoetis Services LLC, priority 2021, published 2025).
pIC50: −log10 of the molar value.

Key:
Assay type in all cases: cell-based
IL-1β = test: Whole bovine blood assay, LPS-induced IL-1β (inhibition / overstimulation); details: drug concentration giving overstimulation (OS) of LPS-induced IL-1β, top concentration 250 μM
Outline: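 Fresh heparinized bovine whole blood was preincubated with compound at varying concentrations for 4 h at 37 °C, then stimulated with 1 μg/mL LPS for 18 h. Plasma IL-1β was measured by MSD chemiluminescent immunoassay and normalized to total protein. Values cover inhibition and concentration-dependent overstimulation.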

TNF-α = test: Whole bovine blood assay, LPS-induced TNF-α; details: fresh whole bovine blood, LPS stimulant; top drug concentration 250 μM
Outline: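 Fresh heparinized bovine whole blood was preincubated with compound 4 h at 37 °C, then stimulated with LPS (final 1 μg/mL) for 18 h at 37 °C. Plasma TNF-α was quantified by MSD U-Plex chemiluminescent immunoassay, normalized to total protein (BCA), and IC50 taken for LPS-induced TNF-α inhibition.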

IL-6 = test: Whole bovine blood assay, LPS-induced IL-6; details: fresh whole bovine blood, LPS stimulant; top drug concentration 250 μM

Work on CC[C@H]1OC(=O)[C@H](C)[C@@H](O[C@H]2C[C@@](C)(OC)[C@](O)(CN3CCCCC3)[C@H](C)O2)[C@H](C)[C@@H](O[C@@H]2O[C@H](C)C[C@H](N(CC(C)C)S(=O)(=O)Nc3ccc(C(F)(F)F)cc3)[C@H]2O)[C@](C)(O)C[C@@H](C)CN[C@H](C)[C@@H](O)[C@]1(C)O [Example C-44] yielded a minimal effective concentration (IL-1β) of 6 µM, a pIC50 (TNF-α) of 5.40 and a pIC50 (IL-6) of 5.40.

CC[C@H]1OC(=O)[C@H](C)[C@@H](O)[C@H](C)[C@@H](O[C@@H]2O[C@H](C)C[C@H](N(C)S(=O)(=O)c3ccc(N4CCOCC4)nc3)[C@H]2Oc2ccc(F)cc2)[C@](C)(O)C[C@@H](C)CN[C@H](C)[C@@H](O)[C@]1(C)O [Example A-21] gave a minimal effective concentration (IL-1β) of 16 µM, a pIC50 (TNF-α) of 4.80 and a pIC50 (IL-6) of 4.80.

Work on CCCNC[C@]1(O)[C@H](C)O[C@@H](O[C@H]2[C@H](C)[C@@H](O[C@@H]3O[C@H](C)C[C@H](N(C)S(=O)(=O)N(C)CC(F)(F)F)[C@H]3O)[C@](C)(O)C[C@@H](C)CN[C@H](C)[C@@H](O)[C@](C)(O)[C@@H](CC)OC(=O)[C@@H]2C)C[C@@]1(C)OC [Example B-112] yielded a minimal effective concentration (IL-1β) of 40 µM, a pIC50 (TNF-α) of 4.41 and a pIC50 (IL-6) of 4.35.

CC[C@H]1OC(=O)[C@H](C)[C@@H](O[C@H]2C[C@@](C)(OC)[C@](O)(CNCCCNC(C)=O)[C@H](C)O2)[C@H](C)[C@@H](O[C@@H]2O[C@H](C)C[C@H](N(C)S(=O)(=O)Nc3ccc(C(F)(F)F)cc3)[C@H]2O)[C@](C)(O)C[C@@H](C)CN[C@H](C)[C@@H](O)[C@]1(C)O [Example B-88] gave a minimal effective concentration (IL-1β) of 14 µM, a pIC50 (TNF-α) of 4.66 and a pIC50 (IL-6) of 4.40.

CC[C@H]1OC(=O)[C@H](C)[C@@H](O[C@H]2C[C@@](C)(OC)[C@](O)(CNC)[C@H](C)O2)[C@H](C)[C@@H](O[C@@H]2O[C@H](C)C[C@H](N(C)S(=O)(=O)c3ccc(Cl)cc3)[C@H]2O)[C@](C)(O)C[C@@H](C)CN[C@H](C)[C@@H](O)[C@]1(C)O [Example B-38] showed a minimal effective concentration (IL-1β) of 5 µM, a pIC50 (TNF-α) of 4.49 and a pIC50 (IL-6) of 4.66.

CCCNC[C@]1(O)[C@H](C)O[C@@H](O[C@H]2[C@H](C)[C@@H](O[C@@H]3O[C@H](C)C[C@H](N(C)S(=O)(=O)N(C)c4ccccc4)[C@H]3O)[C@](C)(O)C[C@@H](C)CN[C@H](C)[C@@H](O)[C@](C)(O)[C@@H](CC)OC(=O)[C@@H]2C)C[C@@]1(C)OC [Example B-57] gave a minimal effective concentration (IL-1β) of 16 µM, a pIC50 (TNF-α) of 5.30 and a pIC50 (IL-6) of 5.10.

CC[C@H]1OC(=O)[C@H](C)[C@@H](O[C@H]2C[C@@](C)(OC)[C@](O)(CN3CCN(C(C)C)CC3)[C@H](C)O2)[C@H](C)[C@@H](O[C@@H]2O[C@H](C)C[C@H](N(C)S(=O)(=O)Nc3ccc(C(F)(F)F)cc3)[C@H]2O)[C@](C)(O)C[C@@H](C)CN[C@H](C)[C@@H](O)[C@]1(C)O [Example C-14] gave a minimal effective concentration (IL-1β) greater than 250 µM, a pIC50 (TNF-α) of less than 3.60 and a pIC50 (IL-6) of less than 3.60.

CCCNC[C@]1(O)[C@H](C)O[C@@H](O[C@H]2[C@H](C)[C@@H](O[C@@H]3O[C@H](C)C[C@H](N(C)S(=O)(=O)N(C)C)[C@H]3O)[C@](C)(O)C[C@@H](C)CN[C@H](C)[C@@H](O)[C@](C)(O)[C@@H](CC)OC(=O)[C@@H]2C)C[C@@]1(C)OC [Example B-51] showed a minimal effective concentration (IL-1β) of 97 µM, a pIC50 (TNF-α) of 4.42 and a pIC50 (IL-6) of 4.21.

Molecule CCCNC[C@]1(O)[C@H](C)O[C@@H](O[C@H]2[C@H](C)[C@@H](O[C@@H]3O[C@H](C)C[C@H](N(C)S(=O)(=O)N(C)Cc4ccccc4)[C@H]3O)[C@](C)(O)C[C@@H](C)CN[C@H](C)[C@@H](O)[C@](C)(O)[C@@H](CC)OC(=O)[C@@H]2C)C[C@@]1(C)OC [Example B-44] has a minimal effective concentration (IL-1β) of 3 µM, a pIC50 (TNF-α) of 4.89 and a pIC50 (IL-6) of 5.05.

CC[C@H]1OC(=O)[C@H](C)[C@@H](O[C@H]2C[C@@](C)(OC)[C@](O)(CN3CCCCC3)[C@H](C)O2)[C@H](C)[C@@H](O[C@@H]2O[C@H](C)C[C@H](N(C)S(=O)(=O)c3ccccc3)[C@H]2Oc2ccc(F)cc2)[C@](C)(O)C[C@@H](C)CN[C@H](C)[C@@H](O)[C@]1(C)O [Example C-54] gave a minimal effective concentration (IL-1β) of 6 µM, a pIC50 (TNF-α) of 5.70 and a pIC50 (IL-6) of 5.40.

CC[C@H]1OC(=O)[C@H](C)[C@@H](O[C@H]2C[C@@](C)(OC)[C@](O)(CNCCCF)[C@H](C)O2)[C@H](C)[C@@H](O[C@@H]2O[C@H](C)C[C@H](N(C)S(=O)(=O)Nc3ccc(C(F)(F)F)cc3)[C@H]2O)[C@](C)(O)C[C@@H](C)CN[C@H](C)[C@@H](O)[C@]1(C)O [Example B-91] was tested, and the minimal effective concentration (IL-1β) was 2 µM, the pIC50 (TNF-α) was 4.47 and the pIC50 (IL-6) was 4.00.

CC[C@H]1OC(=O)[C@H](C)[C@@H](O)[C@H](C)[C@@H](O[C@@H]2O[C@H](C)C[C@H](N(C)S(=O)(=O)c3cc4ccccc4o3)[C@H]2Oc2ccc(F)cc2)[C@](C)(O)C[C@@H](C)CN[C@H](C)[C@@H](O)[C@]1(C)O [Example A-24] showed a minimal effective concentration (IL-1β) of 19 µM, a pIC50 (TNF-α) of 4.52 and a pIC50 (IL-6) of 4.59.

Molecule CC[C@H]1OC(=O)[C@H](C)[C@@H](O[C@H]2C[C@@](C)(OC)[C@](O)(Cn3cnnn3)[C@H](C)O2)[C@H](C)[C@@H](O[C@@H]2O[C@H](C)C[C@H](N(C)S(=O)(=O)c3ccc(Cl)cc3)[C@H]2O)[C@](C)(O)C[C@@H](C)CN[C@H](C)[C@@H](O)[C@]1(C)O [Example C-9] has a minimal effective concentration (IL-1β) of 8 µM, a pIC50 (TNF-α) of 4.64 and a pIC50 (IL-6) of 4.64.

In the case of CC[C@H]1OC(=O)[C@H](C)[C@@H](O[C@H]2C[C@@](C)(OC)[C@](O)(CN3CCN(S(C)(=O)=O)CC3)[C@H](C)O2)[C@H](C)[C@@H](O[C@@H]2O[C@H](C)C[C@H](N(C)S(=O)(=O)Nc3ccc(C(F)(F)F)cc3)[C@H]2O)[C@](C)(O)C[C@@H](C)CN[C@H](C)[C@@H](O)[C@]1(C)O [Example C-15], the minimal effective concentration (IL-1β) was 16 µM, the pIC50 (TNF-α) was 5.00 and the pIC50 (IL-6) was 4.32.

For CC[C@H]1OC(=O)[C@H](C)[C@@H](O[C@H]2C[C@@](C)(OC)[C@](O)(CN3CCN(CC)CC3)[C@H](C)O2)[C@H](C)[C@@H](O[C@@H]2O[C@H](C)C[C@H](N(C)S(=O)(=O)Nc3ccc(C(F)(F)F)cc3)[C@H]2O)[C@](C)(O)C[C@@H](C)CN[C@H](C)[C@@H](O)[C@]1(C)O [Example C-12], the minimal effective concentration (IL-1β) was 100 µM, the pIC50 (TNF-α) was 4.89 and the pIC50 (IL-6) was 3.85.

CCCNC[C@]1(O)[C@H](C)O[C@@H](O[C@H]2[C@H](C)[C@@H](O[C@@H]3O[C@H](C)C[C@H](N(C)S(=O)(=O)N4Cc5ccccc5C4)[C@H]3O)[C@](C)(O)C[C@@H](C)CN[C@H](C)[C@@H](O)[C@](C)(O)[C@@H](CC)OC(=O)[C@@H]2C)C[C@@]1(C)OC [Example B-45] was tested, and the minimal effective concentration (IL-1β) was 3 µM, the pIC50 (TNF-α) was 4.80 and the pIC50 (IL-6) was 5.10.

In the case of CC[C@H]1OC(=O)[C@H](C)[C@@H](O)[C@H](C)[C@@H](O[C@@H]2O[C@H](C)C[C@H](N(C)S(=O)(=O)c3cnc4n3CCC4)[C@H]2Oc2ccc(F)cc2)[C@](C)(O)C[C@@H](C)CN[C@H](C)[C@@H](O)[C@]1(C)O [Example A-28], the minimal effective concentration (IL-1β) was 81 µM, the pIC50 (TNF-α) was less than 3.60 and the pIC50 (IL-6) was 3.92.

CCCNC[C@]1(O)[C@H](C)O[C@@H](O[C@H]2[C@H](C)[C@@H](O[C@@H]3O[C@H](C)C[C@H](N(C)S(=O)(=O)c4nccn4C)[C@H]3Oc3cccc([S+](C)[O-])c3)[C@](C)(O)C[C@@H](C)CN[C@H](C)[C@@H](O)[C@](C)(O)[C@@H](CC)OC(=O)[C@@H]2C)C[C@@]1(C)OC (stereo partly drawn) [Example B-139] showed a minimal effective concentration (IL-1β) of 40 µM, a pIC50 (TNF-α) of 4.40 and a pIC50 (IL-6) of 4.14.
